Measurements as given in patent US20210038577A1, “THIOREDOXIN REDUCTASE INHIBITORS FOR USE IN THE TREATMENT OF CANCER” (Cinda Pharma AB, priority 2018, published 2021).

Columns and labels:
[1] = test system: MDA-MB-231 (a breast cancer cell line); experiment: MTT cell viability assay, MDA-MB-231; assay type: cell-based, human
Description: MDA-MB-453 (ATCC HTB-131) cells were grown in media with sodium pyruvate. MDA-MB-231 cells (ATCC HTB-26) were grown in DMEM media or L-15 supplemented with Glutamax (1×). U87-MG (ATCC HTB-14) and MDA-MB-468 (ATCC HTB-132) cells were cultured in DMEM supplemented with Glutamax (1×). NB-4 (DSMZ ACC-207) cells were cultured in RPMI 1640.
Breast cancer and glioblastoma cell lines were plated 4000 cells/well in 96-well plates in the presence of 10% FBS media. The following day cells were treated with various concentrations of the example compounds (0.1% DMSO final) and incubated for 72 hrs. After the incubation an MTT assay was performed to access cell viability. Percent of viability was determined using DMSO vehicle and no cell (blank) controls.

MDA-MB-231 xenografts = experiment: MDA-MB-231 xenograft tumor growth in immunodeficient athymic nude mice; assay type: in vivo; details: for TGI: 12 doses; for final tumor volumes versus vehicle (waterfall plot): end of experiment (22 days OT-1000, 25 days OT-1129)
Description: Athymic nude mice were inoculated orthotopically with 5×10^6 MDA-MB-231 breast cancer cells into the mammary fat pad, and randomized for treatment when tumors reached an average volume of 80-120 mm^3 (N=12 in each group). […] Xenograft tumor volume was assessed using caliper measurements for 22 days. Athymic nude mouse model is described by Richmond A, and Su Y., Disease Models & Mechanisms. 2008; 1(2-3):78-82.
Athymic nude mice were inoculated orthotopically with 5×10^6 MDA-MB-231 breast cancer cells into the mammary fat pad, and randomized for treatment when tumors reached an average volume of 80-120 mm^3 (N=12 in each group). […] Xenograft tumor volume was assessed using caliper measurements for 25 days. MDA-MB-231 Xenograft Tumor Growth in Immunodeficient Athymic Nude Mice Treated with OT-1096 or Vehicle Control. Athymic nude mice were inoculated orthotopically with 5×10^6 MDA-MB-231 breast cancer cells into the mammary fat pad and randomized for treatment when tumors reached an average volume of 80-120 mm^3 (N=12 in each group). Mice were treated with 10 mg/kg OT-1096 via i.v. injection or with vehicle i.v., once a day using a 5 day on two day off (5/2) dosing regimen for the duration of the experiment. Xenograft tumor volume was assessed using caliper measurements for 25 days. Data is represented as mean tumor volume±SEM. Statistical significance (p<0.05) was determined using a Two-way repeated measures ANOVA with Sidak's multiple comparison test. […] Relative Luminescence Flux in Primary 4T1-Luc2 Immunocompetent Tumors Implanted into the Mammary Fat Pad of BALB/C Mice and Treated with OT-1096 or Vehicle Control. Female BALB/c immunocompetent mice were implanted with 1×10^5 4T1-luc2 murine tumor cells into the mammary fat pad. Upon growth of the tumors between 60-90 mm^3 the animals were selected for imaging. Mice were randomized and enrolled for treatment based on imaging flux values. Mice were treated once daily with 5 mg/kg of either OT-1096 or vehicle control using a 5/2 (five days on, two days off) dosing protocol. Upon days 1, 8, and 15 whole body imaging was performed on the mice to follow tumor cell luminescence. Analysis consists of primary tumor luminescence in mice. Each mouse was normalized to its own baseline luminescence from day 1. […] Data is represented as mean±SEM. Statistical significance (p<0.05) was determined using a Mann-Whitney test. The relative luminescence flux for mice treated with OT-1096 was significant compared to vehicle at day 15. Primary Tumor Growth of TM00098 Patient Derived Xenografts-Triple Negative Breast Cancer in Immunocompetent Humanized NSG Mice (Hu-CD34-NSG) Treated with OT-1096 or Vehicle Control. Female NSG mice were implanted with human CD34+ hematopoietic stem cells from multiple donors and the level of human CD45+ cells were measured in the peripheral blood 12 weeks post engraftment. Mice with >25% human CD45+ cells in the peripheral blood were determined to have a humanized immune system (Hu-CD34-NSG™) mice and were enrolled into the study. The Hu-CD34-NSG mice were implanted with TM00098 patient-derived xenografts (PDX) subcutaneously on the right flank. The TM00098 PDX cancer cells originate from a primary tumor of a patient suffering from a grade 3 TNBC invasive ductal carcinoma. When the tumors reached a volume between 60-120 mm^3 mice were treated with either 10 mg/kg OT-1096 three times a week intravenously (donor 5243 n=5, donor 5252 n=7) or with a vehicle three times a week intravenously (donor 5243 n=3, donor 5252 n=2). In case of tail vein swelling when the test substance or vehicle could not be administered intravenously, Intraperitoneal injection was applied. Tumor volume was measured using a digital caliper two times a week for the duration of the study. Animals that reached a body condition score of ≤2, a body weight loss of ≥20% or a tumor volume >2000 mm^3 were euthanized before study terminus. Animals with ulcerated tumors were also euthanized before study terminus. […]

Trx in MDA-MB-231 cells = experiment: Intracellular Trx levels by ELISA in MDA-MB-231 tumor cells; assay type: cell-based, human; details: for intracellular Trx during treatment: 0.1 μM, 1 μM and 10 μM, over 96 hours; for total intracellular Trx at end of experiment versus untreated cell cultures: end of experiment (96 hours)
Description: The human mammary carcinoma cell line MDA-MB-231 was obtained from the American Type Culture Collection (ATCC; Manassas, Va.) and cultured in Leibovitz's L-15 medium (Thermo Fisher Scientific, USA) supplemented with 10% (v/v) heat-inactivated fetal bovine serum (Thermo Fisher Scientific, USA), 10 mM HERBS (Sigma), 25 mM sodium bicarbonate (Sigma), 1× Glutamax (Sigma), 100 IU/mL penicillin and 100 μg/ml streptomycin (Sigma) in a 5% CO2 atmosphere at 37° C. Briefly, cells were seeded at 7500 cells/well in 96-well plates. After 24 h, the cells were treated either with different concentrations of test compounds or DMSO (0.5%; vehicle control) respectively and further incubated at 37° C. in a CO2 incubator. Culture supernatants were collected at different time points, like, immediately after cell plating (−24 h), 0 h (at the time of compound addition), and 1 h, 6 h, 12 h, 24 h, 48 h, 72 h and 96 h following compound addition. Subsequently, cells were lysed from corresponding wells with 0.1% Triton X-100 and the lysates were collected. Trx levels were measured in both the culture supernatants and cell lysates by ELISA using TXN (Human) ELISA Kit [Abnova; Cat no: KA0535] following manufacturer instruction. A standard curve was prepared using different concentrations of the Trx standard (provided in the kit) with the help of GraphPad Prism software (version 5.0; La Jolla, Calif., USA). Trx concentrations for the unknown samples were calculated from the standard curve. The data were expressed as the means of three replicates.

## NC(=O)c1ccc(I)c([N+](=O)[O-])c1 [Iniparib, 4-Iodo-3-nitrobenzamide, reference compound]
[1]; Homo sapiens, MDA-MB-231, 72 h
  IC50: > 33 µM
MDA-MB-231 xenografts; 25 mg/kg intraperitoneally, 25 days
  TGI: 9%
Trx in MDA-MB-231 cells; e.g. at the 96 h time point
  intracellular Trx levels in comparison to untreated cells: reduced

## COc1ccc([N+](=O)[O-])c(S(=O)(=O)c2ccc(Cl)cc2)n1 [OT-1000, 2-((4-Chlorophenyl)sulfonyl)-6-methoxy-3-nitropyridine]
[1]; Homo sapiens, MDA-MB-231, 72 h
  IC50: 3.14 µM
MDA-MB-231 xenografts; 10 mg/kg IV, 11 times over 22 days
  tumor growth inhibition rate (TGI): 37%
MDA-MB-231 xenografts
  final tumor volumes versus vehicle (waterfall plot): more frequently of lower size than vehicle-treated tumors
Trx in MDA-MB-231 cells
  intracellular Trx during treatment: appears to decline
  total intracellular Trx at end of experiment versus untreated cell cultures: lower

## CCCCCCCCS(=O)(=O)c1nc(OC)ccc1[N+](=O)[O-] [OT-1096, 6-methoxy-3-nitro-2-(octylsulfonyl)pyridine]
MDA-MB-231 xenografts; 10 mg/kg IV, 5 day on two day off (5/2), 25 days
  % TGI: 19%
MDA-MB-231 xenografts; 10 mg/kg i.v. 5/2, day 25, p<0.05
  mean tumor volume compared to vehicle: statistically significant
Trx in MDA-MB-231 cells; at 10 μM
  intracellular levels of Trx compared with control cells: reduced
  time after which intracellular Trx is reduced compared with control cells: 24 h

## CCS(=O)(=O)c1nc(OC)ccc1[N+](=O)[O-] [OT-1129, 2-(ethylsulfonyl)-6-methoxy-3-nitropyridine]
[1]; 72 hrs
  IC50: 4.88 µM
MDA-MB-231 xenografts; 25 mg/kg intravenously, 25 days
  TGI: 25%
MDA-MB-231 xenografts
  final tumor volumes versus vehicle (waterfall plot): more frequently of lower size than vehicle-treated tumors
Trx in MDA-MB-231 cells
  intracellular Trx during treatment: appears to decline
  total intracellular Trx at end of experiment versus untreated cell cultures: lower
